Test results as given in US20160295860A1, “A NOVEL COMPOSITION AND METHOD OF USE TO CONTROL PATHOGENS AND PREVENT DISEASES IN SEEDS” (AGRI-NÉO INC., priority 2013, published 2016).

How the values were obtained:
[1] = system: Total count Aerobic bacteria; assay: Total aerobic count on seeds, grains and spices sprayed with sanitizing solutions; assay type: cell-based
Method: (§1) Seeds were mechanically cleaned and spread in stainless steel containers. Each 100 grams seeds were sprayed with 4 ml total solutions descried above via conventional trigger vaporizer. This solution is equivalent to 40 L disinfecting solution total sprayed on 1-ton seeds. Seeds, grains and spices were selected to represent all families and types of seeds, grains and spices. Another criteria was to select seeds and grains contaminated with a high count of total aerobic bacteria, yeast, mold, E. coli, Salmonella sp. and other pathogenic microorganisms.
(§2) Seeds, grains and spices treated were: • Whole dried pea, • Split pea dried, • Pea fiber, • Vanilla, • Chia, • Sprouted flax and chia, • Flax, • Hemp, and • Black pepper seeds

Y&M (yeast, mold) = assay: Yeast and mold (Y&M) count on seeds, grains and spices sprayed with sanitizing solutions; assay type: cell-based; conditions: for Y&M, n1: replicate n1; for Y&M, n2: replicate n2
Method: as §1, §2

[2] = Whole dried pea, 40 L per 1 ton
[3] = Whole split pea, 40 L per 1 ton

Structure (SMILES) | Conclusion in words on bactericidal efficacy ([1]; Black pepper, 40 L per 1 ton) | Conclusion in words on bactericidal efficacy ([1]; Hemp, 40 L per 1 ton) | Conclusion in words on bactericidal efficacy ([1]; Pea fiber, 40 L per 1 ton) | Conclusion in words on bactericidal efficacy ([1]; Vanilla, 40 L per 1 ton) | Conclusion in words on bactericidal efficacy [1, 2] | Conclusion in words on bactericidal efficacy [1, 3] | Conclusion in words on bactericidal efficacy ([1]; Sprouted flax and chia) | Y&M, Av (Y&M (yeast, mold); Pea fiber) | Y&M, n1 (Y&M (yeast, mold); Pea fiber) | Y&M, n2 (Y&M (yeast, mold); Pea fiber) | Y&M, Av (Y&M (yeast, mold); Whole dried pea) | Y&M, n1 (Y&M (yeast, mold); Whole dried pea) | Y&M, n2 (Y&M (yeast, mold); Whole dried pea) | Y&M, Av (Y&M (yeast, mold); Whole split pea) | Y&M, n1 (Y&M (yeast, mold); Whole split pea) | Y&M, n2 (Y&M (yeast, mold); Whole split pea)
CC(=O)OO [Peracetic acid] | strong bactericidal agent | strong bactericidal agent | strong bactericidal agent | strong bactericidal agent | strong bactericidal agent | strong bactericidal agent | – | – | – | – | – | – | – | – | – | –
CCO [2- Alcohol - ethanol, ethanol] | not a strong bactericidal agent | not a strong bactericidal agent | not a strong bactericidal agent | not a strong bactericidal agent | not a strong bactericidal agent | not a strong bactericidal agent | bactericidal agent but not very strong | Y&M not detected | n1, n2 not detected | n1, n2 not detected | Y&M not detected | n1, n2 not detected | n1, n2 not detected | Y&M not detected | n1, n2 not detected | n1, n2 not detected
